In ChEMBL document CHEMBL5029155, “Design, Synthesis, and Biological Evaluation of Stable Colchicine-Binding Site Tubulin Inhibitors 6-Aryl-2-benzoyl-pyridines as Potential Anticancer Agents” (J Med Chem, 2021):

Key:
[1] = tested on: A-375; assay: Antiproliferative activity against human A-375 cells assessed as cell growth inhibition incubated for 72 hrs by MTS assay; format: functional, cell-based; settings: A-375, 72 h
[2] = Metabolic stability in mouse liver microsomes assessed as half life in presence of NADPH regenerating system by UPLC-MS analysis; format: ADME, Microsome; settings: for t1/2: microsomes
[3] = tested on: M14; assay: Antiproliferative activity against human M14 cells assessed as cell growth inhibition incubated for 72 hrs by MTS assay; format: functional, cell-based; settings: M14, 72 h
[4] = Metabolic stability in human liver microsomes assessed as half life in presence of NADPH regenerating system by UPLC-MS analysis; format: ADME, Microsome; settings: for t1/2: microsomes
[5] = tested on: MDA-MB-453; assay: Antiproliferative activity against human MDA-MB-453 cells assessed as cell growth inhibition incubated for 72 hrs by MTS assay; format: functional, cell-based; settings: MDA-MB-453, 72 h
[6] = Metabolic stability in mouse liver microsomes assessed as intrinsic clearance in presence of NADPH regenerating system by UPLC-MS analysis; format: ADME, Microsome; settings: read-out: CLH
[7] = tested on: MDA-MB-231; assay: Antiproliferative activity against human MDA-MB-231 cells assessed as cell growth inhibition incubated for 72 hrs by MTS assay; format: functional, cell-based; settings: MDA-MB-231, 72 h
[8] = Metabolic stability in human liver microsomes assessed as intrinsic clearance in presence of NADPH regenerating system by UPLC-MS analysis; format: ADME, Microsome; settings: read-out: CLH
[9] = tested on: SK-BR-3; assay: Antiproliferative activity against human SK-BR-3 cells assessed as cell growth inhibition incubated for 72 hrs by MTS assay; format: functional, cell-based; settings: SK-BR-3, 72 h
[10] = tested on: RPMI-7951; assay: Antiproliferative activity against human RPMI-7951 cells assessed as cell growth inhibition incubated for 72 hrs by MTS assay; format: functional, cell-based; settings: RPMI-7951, 72 h
[11] = tested on: M14; assay: Cytotoxicity against human M14 cells measured after 72 hrs […]; format: functional, cell-based; settings: M14, 72 h
[12] = tested on: M14; assay: Cytotoxicity against paclitaxel resistant human M14 cells measured after 72 hrs […]; format: functional, cell-based; settings: M14, 72 h
[13] = Induction of apoptosis in human A375/TxR cells assessed as apoptotic cells at 10 nM measured for 24 hrs by annexin VFITC /PI staining based analysis (reference value: […]); format: functional
[14] = Induction of cell cycle arrest in human A375/TxR cells assessed as accumulation at G2/M phase at 10 nM measured for 24 hrs by PI staining based flow cytometry analysis

| IC50 [1] [nM] | t1/2 [2] [min] | t1/2 [4] [min] | IC50 [5] [nM] | CLint scaled [6] [mL/min/kg] | IC50 [7] [nM] | CLint scaled [8] [mL/min/kg] | IC50 [9] [nM] | half-life ([2]; liver microsomes) [min] | half-life ([4]; liver microsomes) [min] | SMILES | IC50 [3] [nM] | IC50 [10] [nM] | IC50 [11] [nM] | IC50 [12] [nM] | Activity [13] [%] | Activity [14] [%] |
| --- | --- | --- | --- | --- | --- | --- | --- | --- | --- | --- | --- | --- | --- | --- | --- | --- |
| 22.2 | 45 | 42.6 | 14.7 | 76.7 | 17.6 | 29.2 | 16.9 |  |  | COc1cc(C(=O)c2cc(OC)c(OC)c(OC)c2)nc(-c2ccc(C)c(O)c2)c1 | 17.5 | 17.2 |  |  |  |  |
| 3.6 | 1.8 | 7.2 | 3.2 | 1900 | 5.3 | 172 | 3.2 |  |  | COc1cc(C(=O)c2cccc(-c3ccc(C)cc3)n2)cc2c1OCCO2 | 4.5 | 3.1 |  |  |  |  |
| 15.1 | 211.8 | 54.6 | 8.7 | 16.2 | 37.4 | 22.9 | 10.1 |  |  | CCc1c(OC)cc(C(=O)c2cccc(-c3ccc(C)c(O)c3)n2)cc1OC | 24.8 | 13.9 |  |  |  |  |
|  |  |  |  |  |  |  |  |  |  | CC(=O)O[C@H]1C(=O)[C@@]2(C)[C@H]([C@H](OC(=O)c3ccccc3)[C@]3(O)C[C@H](OC(=O)[C@H](O)[C@@H](NC(=O)c4ccccc4)c4ccccc4)C(C)=C1C3(C)C)[C@]1(OC(C)=O)CO[C@@H]1C[C@@H]2O [PACLITAXEL] |  |  | 0.5 | 186 | 11.8 |  |
| 3.7 | 8.4 | 9 | 2.1 | 397 | 6.6 | 136 | 4.2 |  |  | COCCOc1c(OC)cc(C(=O)c2cccc(-c3ccc(C)cc3)n2)cc1OC | 2.4 | 5 |  |  |  |  |
| 5.9 | 119.4 | 46.8 | 4 | 28.7 | 8 | 26.6 | 26.7 |  |  | COc1cc(C(=O)c2cncc(-c3ccc(C)c(O)c3)n2)cc(OC)c1OC | 5.2 | 5.2 |  |  |  |  |
|  |  |  |  |  |  |  |  |  |  | COc1cc2c(c(OC)c1OC)-c1ccc(OC)c(=O)cc1[C@@H](NC(C)=O)CC2 [COLCHICINE] |  |  |  | > 1000 |  |  |
| 4.3 | 4.2 | 43.2 | 9.7 | 824 | 16 | 28.8 | 5.5 |  |  | COc1cc(C(=O)c2cc(C)cc(-c3ccc(C)cc3)n2)cc(OC)c1OC | 4.4 | 6.4 |  |  |  |  |
| 174 |  |  | 139 |  | 515 |  | 82.9 |  |  | COc1cc(-n2ccc3ccc(-c4ccc(C)cc4)nc32)cc(OC)c1OC | 76.5 | 205 |  |  |  |  |
| 52.3 |  |  | 28.1 |  | 112 |  | 25.6 |  |  | COc1cc(C(=O)c2nc(-c3ccc(C)c(O)c3)[nH]c2C)cc(OC)c1OC | 46.6 | 56 |  |  |  |  |
| 36.1 |  |  | 14.2 |  | 31.6 |  | 17.1 |  |  | COc1cc(C(=O)c2ccnc(-c3c[nH]c4ccccc34)n2)cc(OC)c1OC | 29.1 | 29.7 |  |  |  |  |
| 2.4 | 3 | 4.2 | 3.9 | 1050 | 5.3 | 317 | 4.2 |  |  | COc1cc(C(=O)c2cccc(-c3ccc(C)cc3)n2)cc(OC)c1OC | 3.1 | 3.5 |  |  |  |  |
| 21.1 | 167.4 | 205.2 | 54.9 | 20.5 | 22.3 | 6.1 | 65.6 |  |  | COc1cc(-c2n[nH]c3ccc(-c4ccc(C)c(O)c4)nc23)cc(OC)c1OC | 18.5 | 22.9 |  |  |  |  |
| 3 | 12.6 | 5.4 | 4 | 271 | 4.7 | 240 | 3.8 |  |  | COc1cc(C(=O)c2cccc(-c3ccc(C(F)F)cc3)n2)cc(OC)c1OC | 4.7 | 2.8 |  |  |  |  |
| 6.8 | 78.6 | 9 | 2.8 | 43.8 | 15.1 | 142 | 12 |  |  | COc1cc(C(=O)c2ccnc(-c3ccc(C)c(O)c3)n2)cc(OC)c1OC | 5.4 | 7.2 |  |  |  |  |
| 80.9 |  |  | 89.7 |  | 45 |  | 52.3 |  |  | COc1cc(C(=O)c2cc(F)cc(-c3ccc(C(F)F)cc3)c2)cc(OC)c1OC | 56.3 | 40.8 |  |  |  |  |
| 2 |  | 10.8 | 1.1 | 57.3 | 3.3 | 116 | 4.1 |  |  | COc1cc(C(=O)c2cccc(-c3ccc(C)c(O)c3)n2)cc(OC)c1OC | 2 | 2.8 |  |  |  | 60 |
| 7.9 | > 240 | 27.6 | 5 | 13 | 11.1 | 45 | 4.5 |  |  | COc1cc(C(=O)c2cc(OC)c(OC)c(OC)c2)nc(-c2ccc(C)cc2)c1 | 7.7 | 6.8 |  |  |  |  |
| 16.7 |  |  | 13.2 |  | 12.4 |  | 35 |  |  | COc1cc(C(=O)c2cncc(-c3c[nH]c4ccccc34)n2)cc(OC)c1OC | 19.2 | 14.4 |  |  |  |  |
| 85 |  |  | 68.1 |  | 70.9 |  | 119 |  |  | COc1cc(C(=O)c2nc(-c3ccc(C)c(O)c3)[nH]c2Br)cc(OC)c1OC | 76.3 | 133 |  |  |  |  |
| 2.6 | 90 | 33 | 4.2 | 38.2 | 4.3 | 38.1 | 2.4 |  |  | COc1cc(C(=O)c2nc(-c3ccc(C(F)F)cc3)ccc2F)cc(OC)c1OC | 3.2 | 2.1 |  |  |  |  |
| 8.8 |  |  | 5.5 |  | 5.5 |  | 3.5 |  |  | COc1cc(C(=O)c2cc(C)cc(-c3ccc(C)c(N)c3)n2)cc(OC)c1OC | 5.9 | 6.3 |  |  |  |  |
| 28.8 |  |  | 19.3 |  | 33.4 |  | 15.2 |  |  | COc1cc(C(=O)c2cccc(-c3ccc(C)c(NC(C)=O)c3)n2)cc(OC)c1OC | 12.6 | 21.2 |  |  |  |  |
| 5 |  |  | 5.9 | 818 | 5.3 | 83.6 | 5.5 | 4.2 | 15 | COc1cc(C(=O)c2cccc(-c3ccc4c(c3)CCN4)n2)cc(OC)c1OC | 5.6 | 5.9 |  |  |  |  |
| 3.7 | 12.6 | 9.6 | 2.5 | 273 | 2.3 | 133 | 1.9 |  |  | COc1cc(C(=O)c2nc(-c3ccc(C)cc3)ccc2F)cc(OC)c1OC | 2.6 | 3.4 |  |  |  |  |
| 20.8 |  |  | 51.5 |  | 38 |  | 46.1 |  |  | COc1cc(C(=O)c2cncc(-c3cccc4[nH]ncc34)n2)cc(OC)c1OC | 21.9 | 23.8 |  |  |  |  |
| 2.5 | 42.6 | 20.4 | 6.7 | 65.8 | 4.8 |  | 7.1 |  |  | COc1cc(C(=O)c2cncc(-c3ccc(C)cc3)n2)cc(OC)c1OC | 1.7 | 2.2 |  |  |  |  |
| 53.8 |  |  | 33.7 |  | 42.7 |  | 54.5 |  |  | COc1cc(C(=O)c2cccc(-c3ccc(N(C)C)cc3)n2)cc(OC)c1OC | 63.5 | 44 |  |  |  |  |

| SMILES | IC50 [1] [nM] | t1/2 [2] [min] | t1/2 [4] [min] | IC50 [5] [nM] | CLint scaled [6] [mL/min/kg] | IC50 [7] [nM] | CLint scaled [8] [mL/min/kg] | IC50 [9] [nM] | half-life ([2]; liver microsomes) [min] | half-life ([4]; liver microsomes) [min] | IC50 [3] [nM] | IC50 [10] [nM] | IC50 [11] [nM] | IC50 [12] [nM] | Activity [13] [%] | Activity [14] [%] |
| --- | --- | --- | --- | --- | --- | --- | --- | --- | --- | --- | --- | --- | --- | --- | --- | --- |
| COc1cc(C(=O)c2c[nH]c(-c3ccc(C)c(O)c3)n2)cc(OC)c1OC | 41.2 | 84.6 | 142.2 | 23.2 | 40.6 | 24.3 | 8.8 | 57.6 |  |  | 32.4 | 78.4 |  |  |  |  |
